Experimental data: patent US9353120B2, “Tetraaza macrocyclic compound, preparation method thereof and use thereof” (Kyungpook National University Industry-Academic Cooperation …, priority 2009, dated 2016)
Entries after “also recorded” stand apart in the source; their conditions may differ. Read-outs that look alike come from different tables or passages of the source. Each block holds one compound with its values, some of them ahead of it.

Columns and labels:
[1] = Electrochemical studies (cyclic voltammetry); type: physicochemical; conditions: pH 7.0, scan rate 100 mV/s; for reversibility of redox reaction: cyclic voltammogram
Method: Cyclic voltammetry was conducted using Biologic model SP-150 with three-electrode configuration. The system consisted of a glassy carbon (diameter=3 mm) as a working electrode, an Ag/AgCl (sat. KCl) reference electrode, and a Pt wire counter electrode. Samples were run in 0.1 M aqueous […] adjusted to pH 7.0 with glacial […] at scan rate 100 mV/s. The solutions were deoxygenated for 30 minutes with argon (Ar) prior to use and kept under Ar atmosphere during measurement.

[2] = in vivo
[3] = Rat biodistribution of 64Cu complexes
[4] = In vitro serum stability; type: in vitro ADME, bovine; conditions: FBS, 37° C., radio-TLC up to 24 hours, then 50° C. for 1 hour
Method: In vitro serum stability of ^64Cu-PCB-TE2A was tested by adding 20 μL of ^64Cu-PCB-TE2A (1-2 mM, 50 μCi) to 0.5 mL of fetal bovine serum (FBS). The solution was incubated at 37° C., and samples were analyzed by radio-TLC at 10, 30 and 60 minutes and at 2, 4, 10 and 24 hours post-addition to FBS (FIGS. 16-22). After 24 hours, the solution was incubated at 50° C. for 1 hour and once again samples were analyzed by radio-TLC (FIG. 23).

[5] = Kinetic inertness via acid decomplexation (radio-TLC); type: physicochemical; conditions: 5 M and 10 M HCl, 90° C., radio-TLC at 6, 30 and 60 minutes
Method: Acid decomplexation of ^64Cu-PCB-TE2A was tested by adding 20 μL of ^64Cu-PCB-TE2A (1-2 mM, 52 μCi) to 100 μL of 5 M and 10 M HCl. The solution was heated at 90° C., and samples were analyzed by radio-TLC at 6, 30 and 60 minutes post-addition to 5 M and 10 M HCl (FIGS. 10-15).

[6] = in vivo; conditions: female, nude, mouse, iv, 16 uCi, total radioactivity, mean uptake in the tumor
[7] = buffer
[8] = system: U87MG tumors; assay: MicroPET imaging; type: in vivo, female nude mice; conditions: U87MG tumor bearing nude mouse, 1 hour post-injection, 231 μCi
Method: PET scans and image analysis were performed using a microPET R4 rodent model scanner. […] At 1 hour after the injection, the mice were anesthetized with 1-2% isoflurane, positioned porne, and imaged. The images were reconstructed by the 2-dimensional ordered-subsets expectation maximum (OSEM) algorithm. No correction was necessary for attenuation or scatter correction.

[9] = Kidney, 24 hours post-injection
[10] = Muscle, 24 hours post-injection
[11] = Spleen, 24 hours post-injection

Compound: O=C([O-])CN1CCN2CCCN(CC1)CCN(CC(=O)[O-])CC2.[Cu+2] [Cu-PCB-DO2A]
reversibility of redox reaction [1]: irreversible redox reaction
reversibility of redox reaction ([1]; listed as CU-PCB-DO2A): irrev
Ered(V) vs Ag/AgCl (reduction potential) [1]: −0.69 V

Compound: O=C(O)CN1CCCN2CCCN(CCCN(CC(=O)O)CC2)CC1 [PCB-TE2A, 4,11-bis(carboxymethyl)-1,4,8,11-tetraazabicyclo[6.6.3]heptadecane]
Blood (rat biodistribution, cross-bridged and non-cross-bridged chelators) ([2]; Sprague-Dawley, 24 h): 0.012±0.004 % ID/organ
Kidney (rat biodistribution, cross-bridged and non-cross-bridged chelators) ([2]; Sprague-Dawley, 24 h): 0.064±0.009 % ID/organ
Liver (rat biodistribution, cross-bridged and non-cross-bridged chelators) ([2]; Sprague-Dawley, 24 h): 0.142±0.004 % ID/organ

Compound: O=C([O-])CN1CCN2CCCN(CC1)CCN(CC(=O)[O-])CC2.[64Cu+2] [^64Cu-PCB-DO2A]
clearance from the blood, liver and kidneys ([2]; rat): quickly cleared

Compound: O=C([O-])CN1CCCN2CCCN(CCCN(CC(=O)[O-])CC2)CC1.[64Cu+2] [^64Cu-PCB-TE2A]
% ID/g ([3]; Blood, 4 hours post-injection): 0.013 ± 0.003 % ID/g
% ID/organ ([3]; Blood, 4 hours post-injection): 0.192 ± 0.048 % ID/organ
% ID/g ([3]; Blood, 24 hours post-injection): 0.006 ± 0.001 % ID/g
% ID/organ ([3]; Blood, 24 hours post-injection): 0.108 ± 0.029 % ID/organ
% ID/g ([3]; Bone, 4 hours post-injection): 0.030 ± 0.004 % ID/g
% ID/organ ([3]; Bone, 4 hours post-injection): 0.656 ± 0.110 % ID/organ
% ID/g ([3]; Bone, 24 hours post-injection): 0.020 ± 0.005 % ID/g
% ID/organ ([3]; Bone, 24 hours post-injection): 0.569 ± 0.181 % ID/organ
% ID/g ([3]; Fat, 4 hours post-injection): 0.060 ± 0.013 % ID/g
% ID/organ ([3]; Fat, 4 hours post-injection): 1.686 ± 0.322 % ID/organ
% ID/g ([3]; Fat, 24 hours post-injection): 0.036 ± 0.005 % ID/g
% ID/organ ([3]; Fat, 24 hours post-injection): 1.328 ± 0.311 % ID/organ
% ID/g ([3]; Heart, 4 hours post-injection): 0.015 ± 0.001 % ID/g
% ID/organ ([3]; Heart, 4 hours post-injection): 0.011 ± 0.000 % ID/organ
% ID/g ([3]; Heart, 24 hours post-injection): 0.007 ± 0.002 % ID/g
% ID/organ ([3]; Heart, 24 hours post-injection): 0.006 ± 0.001 % ID/organ
% ID/g ([3]; Kidney, 4 hours post-injection): 0.421 ± 0.019 % ID/g
% ID/organ ([3]; Kidney, 4 hours post-injection): 0.794 ± 0.056 % ID/organ
% ID/g [3, 9]: 0.049 ± 0.007 % ID/g
% ID/organ [3, 9]: 0.112 ± 0.011 % ID/organ
% ID/g ([3]; Liver, 4 hours post-injection): 0.213 ± 0.032 % ID/g
% ID/organ ([3]; Liver, 4 hours post-injection): 1.679 ± 0.241 % ID/organ
% ID/g ([3]; Liver, 24 hours post-injection): 0.015 ± 0.001 % ID/g
% ID/organ ([3]; Liver, 24 hours post-injection): 0.122 ± 0.013 % ID/organ
% ID/g ([3]; Lungs, 4 hours post-injection): 0.022 ± 0.003 % ID/g
% ID/organ ([3]; Lungs, 4 hours post-injection): 0.022 ± 0.003 % ID/organ
% ID/g ([3]; Lungs, 24 hours post-injection): 0.013 ± 0.002 % ID/g
% ID/organ ([3]; Lungs, 24 hours post-injection): 0.015 ± 0.003 % ID/organ
% ID/g ([3]; Muscle, 4 hours post-injection): 0.033 ± 0.006 % ID/g
% ID/organ ([3]; Muscle, 4 hours post-injection): 2.743 ± 0.525 % ID/organ
% ID/g [3, 10]: 0.018 ± 0.006 % ID/g
% ID/organ [3, 10]: 1.987 ± 0.703 % ID/organ
% ID/g ([3]; Spleen, 4 hours post-injection): 0.025 ± 0.006 % ID/g
% ID/organ ([3]; Spleen, 4 hours post-injection): 0.013 ± 0.004 % ID/organ
% ID/g [3, 11]: 0.015 ± 0.009 % ID/g
% ID/organ [3, 11]: 0.009 ± 0.004 % ID/organ
% ID/g ([3]; Tail, 4 hours post-injection): 0.046 ± 0.039 % ID/g
% ID/organ ([3]; Tail, 4 hours post-injection): 0.252 ± 0.213 % ID/organ
% ID/g ([3]; Tail, 24 hours post-injection): 0.039 ± 0.014 % ID/g
% ID/organ ([3]; Tail, 24 hours post-injection): 0.276 ± 0.115 % ID/organ
clearance from the blood, liver and kidneys ([3]; words): lowest amount of ^64Cu remaining in the blood and these tissues
in vitro serum stability [4]: intact in the FBS for 24 hours without degradation
kinetic inertness towards acid decomplexation [5]: unusually high kinetic inertness towards acid decomplexation

Compound: N=C(N)NCCC[C@@H]1NC(=O)[C@H](CCCCNC(=S)Nc2ccc(CC3CN4CCCN(CC(=O)O)CCN(CCCN(CC(=O)O)CC4)C3)cc2)NC(=O)[C@@H](Cc2ccc(O)cc2)NC(=O)[C@H](CC(=O)O)NC(=O)CNC1=O (stereo partly shown) [metal not drawn]
tissue uptake at 1 h [6]: 4.76 %ID/g

Half-life for acid decomplexation, 5M HCl, 90° C. [7]: 231(2)h
Ered(V) vs Ag/AgCl (reduction potential) [1]: −0.66 V
Compound: Cu-PCB-TE2A
reversibility of redox reaction [1]: quasi-reversible redox reaction; also recorded: qitasi-rev

Compound: ^64Cu-PCB-TE2A-c(RGDyK)
radiation uptake in the tumors (microPET) [8]: very high in the tumors as compared to other organs
